Consider 2 molecules from publication PMC4654880, “A comparison of the enzymatic properties of three recombinant isoforms of thrombolytic and antibacterial protein—Destabilase-Lysozyme from medicinal leech” (BMC Biochemistry, 2015).

Common to all, as to test: isopeptidase assay, p-nitroaniline release, A405
Holding throughout (assay type): biochemical, Hirudo medicinalis
What all share (details): pH 5.5, no NaCl (stated for activity), 37 °C

One data set deals with T1, mlDL-Ds1.
T1 construct: gene Ds-1; ~16 kDa band printed for Ds3; monomer by gel filtration; synthetic codon-optimised gene
The text has this:
isopeptidase assay, p-nitroaniline release, A405 on mlDL-Ds1

The next data set relates to T2, mlDL-Ds3.
T2 construct: gene Ds-3; ~16 kDa; monomer by gel filtration; synthetic codon-optimised gene
An excerpt: isopeptidase assay, p-nitroaniline release, A405 on mlDL-Ds3

Substrate in data set [1]: N[C@@H](CCC(=O)Nc1ccc([N+](=O)[O-])cc1)C(=O)O
The text has this: isopeptidase assay, p-nitroaniline release, A405 on mlDL-Ds2

As usually defined, the Km is the concentration of substrate that gives half-maximal velocity. Regarding `N[C@@H](CCC(=O)Nc1ccc([N+](=O)[O-])cc1)C(=O)O` [L-γ-Glu-pNA], the Michaelis constant (Km) is 40 µM in the data set on mlDL-Ds1 and 20 µM in the data set with mlDL-Ds3.

B1: mlDL-Ds2 (Hirudo medicinalis) (protein)
chain: QFTDSCLRCICKVEGCDSQIGKCGMDVGSLSCGPYQIKKPYWIDCGKPGGGYESCTKNKACSETCVRAYMKRYGTFCTGGRTPTCQDYARIHNGGPRGCKSSATVGYWNKVQKCLR
notes: monomer by gel filtration; synthetic codon-optimised gene
A word on the kcat: it is the maximal rate divided by the concentration of active sites. As for B1, in data set [1], the Km was 50 µM and the kcat came to 0.08 s⁻¹.
